Test results: US20090005250A1, “Substituted 2,4-diamino-1,3,5-triazines, processes for their use as herbicides and crop growth regulators” (Bayer CropScience AG, priority 2006, published 2009)

Assays:
[1] = system: harmful plants such as Sinapis alba, Echinochloa crus-galli, Lolium multiflorum, Stellaria media, Cyperus iria, Amaranthus retroflexus, Setaria viridis, Avena …; experiment: Post-emergence herbicidal action (greenhouse pot test); format: in vivo, mono- and dicotyledonous weeds; conditions: application rate of 500 g and less of active substance per hectare; treated at three-leaf stage; scored visually after approx. 3 to 4 weeks
Description: Seeds or rhizome pieces of mono- and dicotyledonous weeds were placed in sandy loam in plastic pots, covered with soil and grown in a greenhouse under good growth conditions. Three weeks after the sowing, the test plants were treated at the three-leaf stage. The inventive compounds formulated as spray powders or as emulsion concentrates were sprayed onto the green plant parts in various dosages with an application rate of from 600 to 800 l/ha of water (converted). After the test plants had been left to stand in the greenhouse under optimal growth conditions for approx. 3 to 4 weeks, the action of the preparations was scored visually in comparison to untreated controls. The inventive compositions also had good post-emergence herbicidal activity against a wide spectrum of economically important gramineous and broadleaf weeds. For example, examples no.

[2] = system: harmful plants such as Stellaria media, Lolium multiflorum, Amaranthus retroflexus, Sinapis alba, Avena sativa and Setaria viridis; experiment: Pre-emergence herbicidal action (greenhouse pot test); format: in vivo, mono- and dicotyledonous weed plants; conditions: application rate of 500 g or less of active substance per hectare; scored visually after 3 to 4 weeks in comparison to untreated controls
Description: Seeds or rhizome pieces of mono- and dicotyledonous weed plants were placed in sandy loam in plastic pots and covered with soil. The inventive compounds, which have been formulated in the form of wettable powders or emulsion concentrates, were then applied to the surface of the covering soil as an aqueous suspension or emulsion in different dosages with an application rate of from 600 to 800 l/ha of water (converted). After the treatment, the pots were placed in a greenhouse and kept under good growth conditions for the weeds. The plant or emergence damage is scored visually after the emergence of the test plants after an experiment time of from 3 to 4 weeks in comparison to untreated controls. […] For example, the examples no.

Row | Compound | herbicidal action, post-emergence method [1] | herbicidal action, pre-emergence method [2]
1 | CC(=O)Nc1nc(NC(C2CC2)C2CC2)nc(C(C)(C)F)n1 [Example 2-199] | very good herbicidal action | very good herbicidal action
2 | CC(C)(F)c1nc(N)nc(NC(C2CCC2)C2CCC2)n1 [Example 1-499] | – | very good herbicidal action
3 | Nc1nc(NC(C2CC2)C2CC2)nc(C2CC2)n1 [Example 1-256] | very good herbicidal action | –
4 | Nc1ncnc(NC(C2CC2)C2CC2)n1 [Example 1-19] | very good herbicidal action | very good herbicidal action
5 | CC(C)(F)c1nc(N)nc(NC(C2CC2)C2CC2)n1 [Example 1-493] | very good herbicidal action | very good herbicidal action
6 | Nc1nc(NC(C2CC2)C2CC2)nc(C2(F)CC2)n1 [Example 1-572] | very good herbicidal action | very good herbicidal action
7 | CC(C)(F)c1nc(N)nc(NC2CCC3CC32)n1 (stereo not shown) [Example 7-79] | very good herbicidal action | very good herbicidal action
8 | Nc1nc(NC(C2CC2)C2CC2)nc(C(F)F)n1 [Example 1-651] | very good herbicidal action | very good herbicidal action
9 | CCC(F)c1nc(N)nc(NC(C2CCC2)C2CCC2)n1 (stereo not shown) [Example 1-420] | very good herbicidal action | very good herbicidal action
10 | CN(C)C=Nc1nc(NC(C2CC2)C2CC2)nc(C(C)(C)F)n1 [Example 5-201] | very good herbicidal action | very good herbicidal action
11 | CC(F)c1nc(N)nc(NC(C2CC2)C2CC2)n1 (stereo not shown) [Example 1-335] | very good herbicidal action | very good herbicidal action
12 | CCC(F)c1nc(N)nc(NC(C2CC2)C2CC2)n1 (stereo not shown) [Example 1-414] | very good herbicidal action | –
13 | Cc1nc(N)nc(NC(C2CC2)C2CC2)n1 [Example 1-98] | – | very good herbicidal action
14 | CC(F)c1nc(N)nc(NC(C(C)C)C2CC2)n1 (stereo not shown) [Example 1-317] | very good herbicidal action | very good herbicidal action
15 | CC(C)C(Nc1nc(N)nc(C(C)(C)F)n1)C1CC1 (stereo not shown) [Example 1-475] | very good herbicidal action | very good herbicidal action
16 | CC(C)(F)c1nc(N=CN2CCOCC2)nc(NC(C2CC2)C2CC2)n1 [Example 6-199] | very good herbicidal action | very good herbicidal action
